Legend:
VSV = type: cell-based, vesicular stomatitis virus
CSFV = type: cell-based, classical swine fever virus
BVDV = type: cell-based, bovine viral diarrhoea virus
SFV = type: cell-based, Semliki Forest virus
HIV-1 = type: cell-based, human immunodeficiency virus, Type 1
SHV-1 = type: cell-based, suid herpesvirus 1
SV-40 = type: cell-based, simian virus-40
T-lymphocytes = assay: Inactivation of T lymphocytes in PC, ConA-stimulated BRDU proliferation assay; type: cell-based; conditions: for Absorption OD450 nm (BRDU incorporation rate): ConA activation, three days cultivation
platelets [1] = assay: Collagen-induced aggregation of treated platelet suspensions
platelets [2] = assay: Hypotonic shock reaction (HSR) of treated platelet suspensions
[3] = Experiment 1, Day 1 after treatment, thionine/light + UV-B 2.4 J/cm^2
[4] = Experiment 1, Day 1 after treatment, thionine/light alone
[5] = Experiment 1, Day 3 after treatment, thionine/light + UV-B 2.4 J/cm^2
[6] = Experiment 1, Day 3 after treatment, thionine/light alone
[7] = Experiment 2, Day 1 after treatment, thionine/light + UV-B 2.4 J/cm^2
[8] = Experiment 2, Day 1 after treatment, thionine/light alone
[9] = Experiment 2, Day 3 after treatment, thionine/light + UV-B 2.4 J/cm^2
[10] = Experiment 2, Day 3 after treatment, thionine/light alone
[11] = Experiment 3, Day 1 after treatment, thionine/light + UV-B 2.4 J/cm^2
[12] = Experiment 3, Day 1 after treatment, thionine/light alone
[13] = Experiment 3, Day 3 after treatment, thionine/light + UV-B 2.4 J/cm^2
[14] = Experiment 3, Day 3 after treatment, thionine/light alone
[15] = combined treatment with thionine/light and UV-B compared with photodynamic treatment alone

## Cl.N=c1ccc2nc3ccc(N)cc3sc-2c1 [Thionine/light, Thionine]
VSV
  Infectivity (in words): still not completely eliminated
  Reduction of virus titre: 4.4 log10TCID50
CSFV
  Inactivation of virus (in words): completely inactivated
  Reduction of virus titre: ≧5.5 log10TCID50
BVDV
  Inactivation of virus (in words): completely inactivated
  Reduction of virus titre: ≧4.9 log10TCID50
SFV
  Inactivation of virus (in words): completely inactivated
  Reduction of virus titre: ≧5.2 log10TCID50
HIV-1
  Reduction of virus titre: ≧5.7 log10TCID50
SHV-1
  Reduction of virus titre: ≧3.6 log10TCID50
SV-40
  Infectivity (in words): still not completely eliminated
  Reduction of virus titre: 3.9 log10TCID50
T-lymphocytes; PC additionally treated with thionine/light (2 μM, 30 min), at least 4 min with UV-B alone
  UV-B irradiation time required for complete inactivation of the cells: approximately 3 min
T-lymphocytes; Th/light (2 μM, 30 min) then UV-B 0.6 J/cm^2
  Absorption OD450 nm (BRDU incorporation rate): 1.020
T-lymphocytes; Th/light (2 μM, 30 min) then UV-B 0.9 J/cm^2
  Absorption OD450 nm (BRDU incorporation rate): 0.387
T-lymphocytes; Th/light (2 μM, 30 min) then UV-B 1.2 J/cm^2
  Absorption OD450 nm (BRDU incorporation rate): 0.240
T-lymphocytes; thionine/light alone (2 μM, 30 min)
  Influence on the proliferation of the cells (in words): no influence
Platelets [1]; [3]
  collagen-induced aggregation: 69.75%
Platelets [1]; [4]
  collagen-induced aggregation: 73.25%
Platelets [1]; [5]
  collagen-induced aggregation: 16.75%
Platelets [1]; [6]
  collagen-induced aggregation: 13.75%
Platelets [1]; [7]
  collagen-induced aggregation: 76.67%
Platelets [1]; [8]
  collagen-induced aggregation: 84.67%
Platelets [1]; [9]
  collagen-induced aggregation: 53.50%
Platelets [1]; [10]
  collagen-induced aggregation: 27.67%
Platelets [1]; [11]
  collagen-induced aggregation: 58.33%
Platelets [1]; [12]
  collagen-induced aggregation: 69.67%
Platelets [1]; [13]
  collagen-induced aggregation: 30.33%
Platelets [1]; [14]
  collagen-induced aggregation: 15.67%
Platelets [1]; [15]
  Influence on collagen-induced aggregation (in words): neither the HSR (hypotonic shock reaction) nor the collagen-induced aggregation of platelet concentrates is substantially more strongly influenced
Platelets [2]; [3]
  HSR: 47.86%
Platelets [2]; [4]
  HSR: 65.49%
Platelets [2]; [5]
  HSR: 51.16%
Platelets [2]; [6]
  HSR: 49.16%
Platelets [2]; [7]
  HSR: 42.37%
Platelets [2]; [8]
  HSR: 56.24%
Platelets [2]; [9]
  HSR: 30.26%
Platelets [2]; [10]
  HSR: 52.61%
Platelets [2]; [11]
  HSR: 54.45%
Platelets [2]; [12]
  HSR: 69.30%
Platelets [2]; [13]
  HSR: 48.31%
Platelets [2]; [14]
  HSR: 55.49%
Platelets [2]; [15]
  Influence on HSR (in words): neither the HSR (hypotonic shock reaction) nor the collagen-induced aggregation of platelet concentrates is substantially more strongly influenced

Source: patent publication US20040072139A1, “Photodynamic treatment and uv-b-irradiation of a thrombocyte suspension” (priority 2000, published 2004)
